Assay results reported in ChEMBL document CHEMBL4477271, “Synthesis and antitumor activity evaluation of 4,6-disubstituted quinazoline derivatives as novel PI3K inhibitors” (Bioorg Med Chem Lett, 2016).

Tests used:
HCT-116 = test: Antiproliferative activity against human HCT116 cells harboring PI3CA H1047R mutant after 72 hrs by MTT assay; assay type: functional, cell-based; conditions: HCT-116, 72 h
MCF7 = test: Antiproliferative activity against human MCF7 cells harboring PI3CA E545K mutant after 72 hrs by MTT assay; assay type: functional, cell-based; conditions: MCF7, 72 h
[1] = target: Phosphatidylinositol 4,5-bisphosphate 3-kinase catalytic subunit alpha isoform (Homo sapiens, UniProt P42336); test: Inhibition of PI3Kalpha (unknown origin) assessed as reduction in ATP depletion using lipid substrate after 40 mins by Kinase-Glo luminescent assay
Phosphatidylinositol 4,5-bisphosphate 3-kinase catalytic subunit alpha isoform, sequence (P42336 whole entry, canonical isoform): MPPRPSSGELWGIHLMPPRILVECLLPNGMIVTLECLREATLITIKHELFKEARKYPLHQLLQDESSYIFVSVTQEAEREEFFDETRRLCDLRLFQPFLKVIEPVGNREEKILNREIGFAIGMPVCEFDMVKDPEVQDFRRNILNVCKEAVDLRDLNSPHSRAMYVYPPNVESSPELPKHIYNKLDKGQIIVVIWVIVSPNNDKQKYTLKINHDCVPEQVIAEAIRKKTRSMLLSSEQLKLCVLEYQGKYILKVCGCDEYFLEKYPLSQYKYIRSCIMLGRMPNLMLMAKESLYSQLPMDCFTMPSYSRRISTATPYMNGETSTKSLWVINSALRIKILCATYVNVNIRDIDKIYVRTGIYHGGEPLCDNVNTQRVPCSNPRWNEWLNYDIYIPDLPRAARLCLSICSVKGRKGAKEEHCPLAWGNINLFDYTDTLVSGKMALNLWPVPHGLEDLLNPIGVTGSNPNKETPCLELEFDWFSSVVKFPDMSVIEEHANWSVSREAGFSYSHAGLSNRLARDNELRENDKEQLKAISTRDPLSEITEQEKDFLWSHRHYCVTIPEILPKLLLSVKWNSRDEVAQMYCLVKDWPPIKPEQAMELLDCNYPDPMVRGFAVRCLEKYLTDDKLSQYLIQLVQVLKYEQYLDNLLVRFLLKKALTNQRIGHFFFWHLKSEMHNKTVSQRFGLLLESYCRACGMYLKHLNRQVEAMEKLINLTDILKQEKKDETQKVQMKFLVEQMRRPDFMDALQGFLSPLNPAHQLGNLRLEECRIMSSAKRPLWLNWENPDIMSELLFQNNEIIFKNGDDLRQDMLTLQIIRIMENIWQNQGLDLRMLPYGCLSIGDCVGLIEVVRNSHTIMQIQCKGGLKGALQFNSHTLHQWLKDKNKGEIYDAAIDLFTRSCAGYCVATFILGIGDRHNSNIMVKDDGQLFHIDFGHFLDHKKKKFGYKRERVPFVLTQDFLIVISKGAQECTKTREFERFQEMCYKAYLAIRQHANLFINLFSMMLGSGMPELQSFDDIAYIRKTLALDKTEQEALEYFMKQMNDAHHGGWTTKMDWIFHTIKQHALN

[2] = target: Phosphatidylinositol 4,5-bisphosphate 3-kinase catalytic subunit beta isoform (Homo sapiens, UniProt P42338); test: Inhibition of PI3Kbeta (unknown origin) assessed as reduction in ATP depletion using lipid substrate after 40 mins by Kinase-Glo luminescent assay
Phosphatidylinositol 4,5-bisphosphate 3-kinase catalytic subunit beta isoform, sequence (P42338 whole entry, canonical isoform): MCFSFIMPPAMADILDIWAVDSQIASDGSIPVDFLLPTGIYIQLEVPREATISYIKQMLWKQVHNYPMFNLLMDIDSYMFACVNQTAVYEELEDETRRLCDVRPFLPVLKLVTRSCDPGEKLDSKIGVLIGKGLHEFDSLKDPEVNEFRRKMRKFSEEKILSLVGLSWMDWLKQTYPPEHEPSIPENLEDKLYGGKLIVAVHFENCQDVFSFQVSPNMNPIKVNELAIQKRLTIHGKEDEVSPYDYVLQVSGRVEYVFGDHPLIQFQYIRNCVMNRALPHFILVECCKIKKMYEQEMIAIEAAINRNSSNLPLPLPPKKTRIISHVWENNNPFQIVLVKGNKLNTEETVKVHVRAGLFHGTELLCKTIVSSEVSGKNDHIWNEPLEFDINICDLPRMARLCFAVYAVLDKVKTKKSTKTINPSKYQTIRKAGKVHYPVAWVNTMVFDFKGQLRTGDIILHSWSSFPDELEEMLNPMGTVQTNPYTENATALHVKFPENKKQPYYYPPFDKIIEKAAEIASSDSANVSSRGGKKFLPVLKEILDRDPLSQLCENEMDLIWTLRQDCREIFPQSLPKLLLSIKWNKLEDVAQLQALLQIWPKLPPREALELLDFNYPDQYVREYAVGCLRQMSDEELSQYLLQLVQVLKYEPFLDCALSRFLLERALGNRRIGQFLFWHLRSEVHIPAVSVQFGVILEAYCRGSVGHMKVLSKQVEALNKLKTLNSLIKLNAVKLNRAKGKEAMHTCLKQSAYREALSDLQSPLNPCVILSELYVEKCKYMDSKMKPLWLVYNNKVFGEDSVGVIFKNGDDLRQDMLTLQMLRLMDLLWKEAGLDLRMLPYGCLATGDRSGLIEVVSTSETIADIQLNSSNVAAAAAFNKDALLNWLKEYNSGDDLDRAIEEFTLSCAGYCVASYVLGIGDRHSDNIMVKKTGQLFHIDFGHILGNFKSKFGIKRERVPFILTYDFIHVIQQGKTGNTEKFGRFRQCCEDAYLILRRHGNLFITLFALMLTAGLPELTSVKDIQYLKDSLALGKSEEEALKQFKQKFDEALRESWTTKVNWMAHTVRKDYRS

[3] = target: T1, Phosphatidylinositol 4,5-bisphosphate 3-kinase catalytic subunit delta isoform (Homo sapiens, UniProt O00329); test: Inhibition of PI3Kdelta (unknown origin) assessed as reduction in ATP depletion using lipid substrate after 40 mins by Kinase-Glo luminescent assay
T1 sequence (O00329 whole entry): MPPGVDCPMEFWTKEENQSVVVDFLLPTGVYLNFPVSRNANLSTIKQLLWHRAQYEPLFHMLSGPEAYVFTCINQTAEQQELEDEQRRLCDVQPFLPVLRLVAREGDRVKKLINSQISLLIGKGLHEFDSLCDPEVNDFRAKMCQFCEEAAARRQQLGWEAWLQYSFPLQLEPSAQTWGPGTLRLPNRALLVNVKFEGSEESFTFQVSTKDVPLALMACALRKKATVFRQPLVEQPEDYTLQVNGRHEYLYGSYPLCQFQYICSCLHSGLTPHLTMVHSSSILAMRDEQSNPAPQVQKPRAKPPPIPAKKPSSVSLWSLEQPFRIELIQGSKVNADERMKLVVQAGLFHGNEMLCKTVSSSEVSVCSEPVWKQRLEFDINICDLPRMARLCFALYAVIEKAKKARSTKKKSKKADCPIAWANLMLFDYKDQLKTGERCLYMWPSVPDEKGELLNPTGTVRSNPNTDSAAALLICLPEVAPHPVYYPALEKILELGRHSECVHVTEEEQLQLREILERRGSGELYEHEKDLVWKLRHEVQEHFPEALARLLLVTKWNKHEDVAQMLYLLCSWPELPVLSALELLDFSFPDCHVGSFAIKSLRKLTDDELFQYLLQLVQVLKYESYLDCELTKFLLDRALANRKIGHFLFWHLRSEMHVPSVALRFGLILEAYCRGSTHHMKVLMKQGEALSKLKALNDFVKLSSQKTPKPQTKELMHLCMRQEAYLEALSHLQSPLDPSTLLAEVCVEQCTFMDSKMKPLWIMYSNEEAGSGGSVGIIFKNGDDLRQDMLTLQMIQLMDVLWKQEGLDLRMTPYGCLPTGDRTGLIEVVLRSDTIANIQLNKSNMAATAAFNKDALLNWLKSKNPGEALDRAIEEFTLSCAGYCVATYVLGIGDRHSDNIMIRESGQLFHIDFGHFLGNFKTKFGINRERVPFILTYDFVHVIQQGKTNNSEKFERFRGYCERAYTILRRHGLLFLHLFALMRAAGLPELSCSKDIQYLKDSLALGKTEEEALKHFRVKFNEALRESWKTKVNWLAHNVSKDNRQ

[4] = target: Phosphatidylinositol 4,5-bisphosphate 3-kinase catalytic subunit gamma isoform (Homo sapiens, UniProt P48736); test: Inhibition of PI3Kgamma (unknown origin) assessed as reduction in ATP depletion using lipid substrate after 40 mins by Kinase-Glo luminescent assay
Phosphatidylinositol 4,5-bisphosphate 3-kinase catalytic subunit gamma isoform, sequence (P48736 whole entry, canonical isoform): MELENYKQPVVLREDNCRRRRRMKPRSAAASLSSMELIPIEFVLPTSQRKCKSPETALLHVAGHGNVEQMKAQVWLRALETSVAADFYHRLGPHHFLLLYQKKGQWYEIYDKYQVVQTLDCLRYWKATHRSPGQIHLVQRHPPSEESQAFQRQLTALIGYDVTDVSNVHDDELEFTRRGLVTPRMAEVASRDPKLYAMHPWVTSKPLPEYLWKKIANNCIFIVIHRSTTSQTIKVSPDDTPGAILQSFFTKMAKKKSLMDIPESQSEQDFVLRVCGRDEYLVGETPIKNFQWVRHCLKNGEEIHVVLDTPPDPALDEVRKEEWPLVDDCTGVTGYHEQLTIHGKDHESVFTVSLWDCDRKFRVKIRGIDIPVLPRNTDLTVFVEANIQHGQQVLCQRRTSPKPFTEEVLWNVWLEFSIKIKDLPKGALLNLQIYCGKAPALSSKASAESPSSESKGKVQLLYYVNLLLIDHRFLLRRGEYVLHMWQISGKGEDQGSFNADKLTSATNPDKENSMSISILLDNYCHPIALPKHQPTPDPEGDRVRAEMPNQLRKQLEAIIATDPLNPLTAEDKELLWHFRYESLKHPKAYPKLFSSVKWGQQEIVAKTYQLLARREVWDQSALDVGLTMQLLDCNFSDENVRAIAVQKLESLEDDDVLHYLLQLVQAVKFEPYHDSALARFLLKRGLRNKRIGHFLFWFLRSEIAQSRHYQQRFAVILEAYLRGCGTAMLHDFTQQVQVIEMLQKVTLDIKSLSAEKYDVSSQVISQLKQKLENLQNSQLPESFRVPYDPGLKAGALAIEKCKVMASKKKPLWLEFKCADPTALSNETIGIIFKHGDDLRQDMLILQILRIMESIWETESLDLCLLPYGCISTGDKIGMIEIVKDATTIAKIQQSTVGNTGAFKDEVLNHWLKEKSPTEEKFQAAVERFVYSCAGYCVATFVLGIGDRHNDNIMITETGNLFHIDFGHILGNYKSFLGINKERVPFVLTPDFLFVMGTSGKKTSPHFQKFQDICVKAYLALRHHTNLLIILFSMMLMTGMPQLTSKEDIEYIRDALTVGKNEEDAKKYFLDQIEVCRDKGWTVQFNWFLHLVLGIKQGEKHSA

CCRF S-180 [5] = test: Antitumor activity against mouse S180 cells implanted in mouse assessed as tumor growth inhibition at 5 mg/kg, po qd for 8 days relative to control; assay type: functional; conditions: CCRF S-180, po, 192 h, read-out: TGI
CCRF S-180 [6] = test: Antitumor activity against mouse S180 cells implanted in mouse assessed as tumor growth inhibition at 15 mg/kg, po qd for 8 days relative to control; assay type: functional; conditions: CCRF S-180, po, 192 h, read-out: TGI
CCRF S-180 [7] = test: Antitumor activity against mouse S180 cells implanted in mouse assessed as tumor growth inhibition at 50 mg/kg, po qd for 8 days relative to control; assay type: functional; conditions: CCRF S-180, po, 192 h, read-out: TGI
[8] = Toxicity in mouse implanted with mouse S180 cells assessed as body weight loss at 5 to 50 mg/kg, po qd for 8 days; assay type: organism-based; conditions: in vivo, 192 h

Row | SMILES | IC50 (HCT-116) [µM] | IC50 (MCF7) [µM] | further results
1 | COc1ccc(-c2ccc3ncnc(NCCN4CCOCC4)c3c2)cc1C(N)=O | 24.4 | 29.3 | 
2 | COc1ncc(-c2ccc3ncnc(OCCN(C)C)c3c2)cc1[N+](=O)[O-] | 9.38 | 7.26 | 
3 | COc1ccc(-c2ccc3ncnc(NCCN4CCCC4)c3c2)cn1 | 3.91 | 10.1 | 
4 | COc1ccc(-c2ccc3ncnc(NCCN4CCCCC4)c3c2)cn1 | 22.2 | 2.42 | 
5 | COc1ccc(-c2ccc3ncnc(NCCN4CCOCC4)c3c2)cn1 | 38.6 | 34.3 | 
6 | COc1ncc(-c2ccc3ncnc(NCCN4CCCCC4)c3c2)cc1[N+](=O)[O-] | 0.65 | 8.61 | IC50 [1]: 3.17 µM
7 | COc1ccc(-c2ccc3ncnc(NCCN4CCCCC4)c3c2)cc1C(N)=O | 29.4 | 39.1 | 

Continued, in another order:

Row | IC50 (HCT-116) [µM] | IC50 (MCF7) [µM] | SMILES | further results
8 | 2.05 | 3.86 | CCN(CC)CCNc1ncnc2ccc(-c3cnc(OC)c(C#N)c3)cc12 | 
9 | 2.35 | 6.22 | COc1ncc(-c2ccc3ncnc(NCCN4CCCC4)c3c2)cc1C#N | 
10 | 15.8 | 2.97 | COc1ccc(-c2ccc3ncnc(NCCN(C)C)c3c2)cn1 | 
11 | 5.16 | 6.68 | COc1ncc(-c2ccc3ncnc(OCCN(C)C)c3c2)cc1C#N | 
12 | 9.56 | 8.74 | CCN(CC)CCNc1ncnc2ccc(-c3ccc(OC)nc3)cc12 | 
13 | 2.68 | 2.74 | COc1ncc(-c2ccc3ncnc(NCCN4CCCCC4)c3c2)cc1C#N | 
14 | 7.33 | 16.3 | CCN(CC)CCNc1ncnc2ccc(-c3cnc(OC)c([N+](=O)[O-])c3)cc12 | 
15 | 0.51 | 2.1 | COc1ncc(-c2ccc3ncnc(NCCN4CCOCC4)c3c2)cc1C#N | IC50 [1]: 0.465 µM; IC50 [2]: 0.3 µM; IC50 [3]: 0.037 µM; IC50 [4]: 0.934 µM; inhibition in vivo at 5 mg/kg (CCRF S-180 [5]): 33%; inhibition in vivo at 15 mg/kg (CCRF S-180 [6]): 49%; inhibition in vivo at 50 mg/kg (CCRF S-180 [7]): 68.4%; Activity [8]: Non-Toxic
16 | 0.56 | 3.23 | COc1ncc(-c2ccc3ncnc(NCCN(C)C)c3c2)cc1C#N | IC50 [1]: 3.01 µM
17 | 1.8 | 2.87 | COc1ncc(-c2ccc3ncnc(NCCN4CCOCC4)c3c2)cc1[N+](=O)[O-] | 
